Read-outs that look alike come from different tables or passages of the source. One block for each compound: values may come before it.
Key:
A431 cells = test: WST-1r and apigenin dose-response, cell viability by CCK8; format: cell-based
Protocol: (§1) Method: UM-SCC6, MDA-MB-231, Cal27, HT1080, T294, B6-5 and A431 cells were treated with 3% or 10% of WST-1r or 10, 30, or 100 μM apigenin or combination of variable concentrations of WST-1r with apigenin in parallel with untreated control cells and DMSO control for 4 hours, then, the treatments were removed and the cells, thus, treated were changed to normal growth medium and maintained in culture for another 24 hours. DMSO was used as vehicle control. Cell viabilities were measured by CCK8 Kit and normalized to % of untreated control calls.

MDA-MB-231 cells = test: as above; format: cell-based
Protocol: as §1

[1] = system: phosphorylated JNK in UM-SCC6 cells; test: JNK phosphorylation (FACE Kit); format: cell-based, human; details: 4 hours
Protocol: Method: UM-SCC6 cells were treated with WST-1r and apigenin at the indicated doses for 4 hours, and then phosphorylated JNK and total JNK were measured in parallel with FACE Kit (Qiogen). The resulting data were normalized to total cell number measured by crystal violet staining The phosphorylated JNK from each measurement were normalized to the ratio of phosphorylated JNK over total JNK values.

[2] = system: ROS generation in UM-SCC6 cells; test: Dose response of ROS generation (CM-H2-DCFDA fluorescence); format: cell-based, human
Protocol: Method: UM-SCC6 cells were labeled with 10 μM CM-H2-DCFDA for 15 minutes and then treated with WST-1r or CCK8 at the indicated amounts in combination with variable doses of apigenin (A) or IKK Inhibitor III (B) for 4 hours. Fluorescence at Ex485/Em535 were measured for detecting ROS generation that labeled by the CM-H2-DCFDA.

[3] = system: UM-SCC6, HT1080, Cal27, SK-Mel-5, and HEKa cells; test: WST-3 or apigenin alone, cell viability, all tested lines; format: cell-based, human; details: 50 µM WST-3 or 30 μM apigenin alone, 4 hours then 24 hours
Protocol: (§2) Method: UM-SCC6, HT1080, Cal27, SK-Mel-5, and HEKa cells were treated with 50 or 100 μM WST-3 or 10 or 30 μM apigenin alone, or combination of WST-3 and apigenin at different concentrations for 4 hours with untreated cells as control, then, changed to normal growth medium and remained culture in this medium for another 24 hours. After the 24 hours culture, cell viabilities were measured with CCK8 Kit. Data were normalized to % of untreated control cells.

UM-SCC6 cells [4] = test: CCK8, XTT, WST-1r comparison in combination with apigenin, cell viability; format: cell-based, human; details: for IC50: Homo sapiens, read-out: Apigenin 1050
Protocol: Method: HT1080 and UM-SCC6 cells were treated with 10% of WST-1r, CCK8 or XTT in combination with variable doses of apigenin for 4 hours and, then changed to normal growth medium for another 24 hours. Cell viability was measured with CCK8 kit.

UM-SCC6 cells [5] = test: mPMS dose-response with WST-1c and apigenin, cell viability; format: cell-based, human; details: mPMS variable with 1 mM WST-1c and 10, 30 or 100 μM apigenin
Protocol: (§3) Method: A & B: HT1080 (FIG. 16A) and UM-SCC6 (FIG. 16B) cells were treated with variable concentrations of mPMS as indicated in combination with 1 mM WST-1c and 10, 30 or 100 μM apigenin for 4 hours and, then, changed to normal growth medium for another 24 hours. Cell viabilities were measured by CCK8 Kit. 1 mM WST-1 only, 0.12 mM mPMS only and 10% WST-1r were used as parallel control. AP 0: Untreated Control, AP 10: 10 μM Apigenin, AP 30: 30 μM Apigenin, AP 100: 100 μM Apigenin.

HT1080 cells [6] = test: as above; format: cell-based, human; details: mPMS variable with 1 mM WST-1c and 10, 30 or 100 μM apigenin
Protocol: as §3

non cancer HEKa cells = test: WST-3 with apigenin, cell viability by CCK8; format: cell-based, human; details: for cell death, single agent: apigenin or WST-3 alone
Protocol: as §2

SK-Mel-5 cells = test: WST-3 with apigenin, cell viability by CCK8; format: cell-based, human; details: for cell death, single agent: apigenin or WST-3 alone
Protocol: as §2

[7] = system: UM-SCC6, Cal27 and HEKa cells; test: Modified WST-1r and Apigenin, cancer versus non-cancer cells, single agents; format: cell-based, human; details: 10% modified WST-1r (mPMS 20 μM, WST-1c 1 mM) or Apigenin 30 or 100 μM, 4 hours then 24 hours
Protocol: Comparison of cell responses to modified WST-1r and Apigenin combination treatment between cancer cells and non-cancer cells. UM-SCC6, Cal27 human head and neck cancer cell lines and primary cultured human […] keratinocytes (HEKa) as labeled were treated with 10% modified WST-1r (mPMS 20 μM, WST-1c 1 mM) with (WST-1r 10) or without (WST-1r 0) 10% modified WST-1r in combination with 0 (Apigenin 0), 30 (Apigenin 30) or 100 (Apigenin 100) μM Apigenin for 4 hours, then, changed to apigenin in the corresponding concentrations for another 24 hours.

HT1080 cells [8] = test: pUC19 DNA transfection plus chemotherapeutic drug, cell viability; format: cell-based, human; details: for IC50 of Cis-Platinum: HT1080 cells
Protocol: HT1080 Cells were transfected with pUC19 DNA, pcDNA3, pUC19+pcDNA3, IKK1-KA+pUC19, IKK2-KA+pUC19, and IKK1-KA+IKK2-KA+pUC19, IKK1-KA+pcDNA3, IKK2-KA+pcDNA3, or IKK1-KA+IKK2-KA+pcDNA3, for 48 hours before the treatment of chemotherapy drugs at various doses. Cell viability was measured in 72 and 96 hours after drug treatment.
Drug treatment: Cis-Platinum 30 ng/ml-3 μg/ml (FIG. 6D), Paclitaxel 1 nM-10 μM (FIG. 6C), 5-FU 50 nM-500 μM (data not shown), Doxorubicin 30 nM-3.3 μM (data not shown).

HT1080 cells [9] = test: siRNA or Puc19 transfection combined with Taxel, cell viability by CCK8; format: cell-based, human; details: 72 hours after the treatment
Protocol: Method: HT1080 cells transfected with siRNAs that were derived from Puc19 DNA sequence and the siRNAs that targeting the corresponding genes that are the targets of the Puc19 derived siRNAs for 24 hours, then, treated with Taxel at 3, 10, 30, and 100 nM for 48 hours. After the 48 hours of Taxel treatment, cells in culture were changed to normal growth medium for 24 to 72 hours. Cell viability was monitored by CCK8 Kit every 24 hours. Data are normalized to % of untreated control cells. The siRNAs that used for this study includes siRNA#1, siRNA#2, siRHA#3, siRNA targeting TRPC6, SH3PXD2B, C6orf108, TTBK1, MAGI3, and TMEM182 as well as combination of siRNA#2+#3, and siRNA#1+#2+#3+#4+#5 (siRNAΣ1-5).

UM-SCC-6 cells = test: pUC19 DNA transfection plus chemotherapeutic drug, cell viability; format: cell-based, human; details: for IC50: Homo sapiens, read-out: IC50 of 5-FU; for IC50 of Cis-Platinum: UM-SCC-6 cells
Protocol: UM-SCC-6 cells were transfected with pUC19 DNA, pcDNA3, pUC19+pcDNA3, IKK1-KA+pUC19, IKK2-KA+pUC19, and IKK1-KA+IKK2-KA+pUC19, IKK1-KA+pcDNA3, IKK2-KA+pcDNA3, or IKK1-KA+IKK2-KA+pcDNA3, for 48 hours and, treated with variable doses of 5-FU (FIG. 6A) or Cis-Platinum (FIG. 6B) for […] respectively. Cell viabilities were measured in 72 and 96 hours respectively after drug treatment.

UM-SCC6 cells [10] = test: Other tetrazolium salts as substitutes of WST-1r with apigenin, cell viability; format: cell-based, human; details: 1 mM WST-1, 0.4 mM WST-3, 0.5 mM WST-4, 0.5 mM WST-5, 0.12 mM mPMS; apigenin 10, 30 or 100 μM; 4 hours then 24 hours
Protocol: (§4) Method: HT1080 and UM-SCC6 cells were treated with 1 mM WST-1, 0.4 mM WST-3, 0.5 mM WST-4, 0.5 mM WST-5 or 0.12 mM mPMS alone or each of the WST-3, WST-4, and WST-5 at the same concentration in combination with 0.12 mM mPMS (0.4 mM WST-3+0.12 mM mPMS, 0.5 mM WST-4+0.12 mM mPMS, 0.5 mM WST-5+0.12 mM mPMS) plus 10, 30 or 100 μM apigenin for 4 hours and, then changed to normal growth medium for another 24 hours. Cell viability was measured with CCK8 Kit.

HT1080 cells [11] = test: as above; format: cell-based, human; details: 1 mM WST-1, 0.4 mM WST-3, 0.5 mM WST-4, 0.5 mM WST-5, 0.12 mM mPMS; apigenin 10, 30 or 100 μM; 4 hours then 24 hours
Protocol: as §4

[12] = 4 hours, then 24 hours normal medium, combination 3% WST-1r with 100 μM apigenin or 10% WST-1r with 30 μM apigenin
[13] = combination of 30 μM apigenin and WST-3

IC50 (A431 cells; Homo sapiens, A-431, in the presence of 10% WST-1r): 10 µM
IC50 (MDA-MB-231 cells; Homo sapiens, MDA-MB-231, in the presence of 10% WST-1r): 10 µM
SMILES: O=c1cc(-c2ccc(O)cc2)oc2cc(O)cc(O)c12 [Apigenin, 4H-1-benzopyran-4-one,5,7-dihydroxy-2-(4-hydroxy-phenyl)-(9CI)]
cell death / cell survival (A431 cells; [12]): little effect on cell survival
cell death / cell survival (MDA-MB-231 cells; [12]): little effect on cell survival
phosphorylation of JNK (ratio phosphorylated over total JNK) [1]: dose dependent induction of phosphorylation of JNK
ROS generation, agent alone ([2]; 4 hours): no effect on ROS generation
ROS generation ([2]; apigenin combined with CCK8, apigenin dose dependent): increase the ROS generation
cell death, single agent [3]: no or limited effect of cell death
Apigenin 1050 (UM-SCC6 cells [4]; CCK8+apigenin): did not reached 1050
IC50 (UM-SCC6 cells [4]; 10% WST-1r treated UM-SCC6 cells): 5 µM
IC50 (UM-SCC6 cells [4]; 10% XTT treated UM-SCC6 cells): 25 µM
Apigenin 1050 (UM-SCC6 cells [4]; apigenin only): did not reached 1050
cell death (UM-SCC6 cells [5]): dose dependent cell death
cell death (HT1080 cells [6]): dose dependent cell death
cell death, single agent (non cancer HEKa cells): limited cell death
cell death, single agent (SK-Mel-5 cells): dose dependent but limited cell death
cell viabilities, single agent treatment [7]: little effect on cell viabilities

SMILES: CC(=O)O[C@H]1C(=O)[C@@]2(C)[C@H]([C@H](OC(=O)c3ccccc3)[C@]3(O)C[C@H](OC(=O)[C@H](O)[C@@H](NC(=O)c4ccccc4)c4ccccc4)C(C)=C1C3(C)C)[C@]1(OC(C)=O)CO[C@@H]1C[C@@H]2O [Paclitaxel]
IC50 (HT1080 cells [8]; Homo sapiens, HT-1080, pUC19 transfected HT1080 cells, read-out: IC50 of texal): 20 nM
response to texal (HT1080 cells [8]; untransfected HT1080 cells): did not show any response upto 100 nM
untransfected cells at 96 hours after drug treatment (HT1080 cells [8]): recovered and grown up
IC50 (HT1080 cells [9]; Homo sapiens, HT-1080, Contrl (untransfected)): 60 nM
cell survival / cell death (HT1080 cells [9]; Taxel 3-100 nM): dose dependent cell death

SMILES: O=[N+]([O-])c1ccc(-[n+]2nc(-c3ccc(S(=O)(=O)[O-])cc3S(=O)(=O)[O-])nn2-c2ccc(I)cc2)c([N+](=O)[O-])c1.[Na+] [WST-3, 2-(4-Iodophenyl)-3-(2,4-dinitrophenyl)-5-(2,4-disulfophenyl)-2H-tetrazolium, sodium salt]
cell death, single agent [3]: no or limited effect of cell death
cell death, single agent (non cancer HEKa cells): limited cell death
IC50 (non cancer HEKa cells; [13]): 40 µM
cell death, single agent (SK-Mel-5 cells): dose dependent but limited cell death
IC50 (SK-Mel-5 cells; [13]): 20 µM
WST-3 IC50 in SK-Mel-5 compared with HEKa cells (SK-Mel-5 cells; combination with 30 μM apigenin): one fold less than that from HEKa cells

SMILES: O=c1[nH]cc(F)c(=O)[nH]1 [5-FU, 5-fluoro-2,4-(1H,3H) pyrimidinedione]
IC50 (UM-SCC-6 cells; pUC19 transfected UM-SCC6 cells): 200 µM
IC50 (UM-SCC-6 cells; untransfected UM-SCC6 cells): > 1000 µM

SMILES: N.N.[Cl][Pt][Cl] [Cis-Platinum, cis-diamminedichloroplatinum]
IC50 of Cis-Platinum (HT1080 cells [8]; pUC19 transfected): 0.3 µg/mL
IC50 of Cis-Platinum (HT1080 cells [8]; untransfecte control): 3 µg/mL
untransfected cells at 96 hours after drug treatment (HT1080 cells [8]): recovered and grown up
IC50 of Cis-Platinum (UM-SCC-6 cells; pUC19 transfected): 1 µg/mL
IC50 of Cis-Platinum (UM-SCC-6 cells; untransfecte control): 3 µg/mL

SMILES: COc1cc(-c2ccc(-n3nc(-c4ccc(C(=O)N(CCS(=O)(=O)[O-])CCS(=O)(=O)[O-])cc4)n[n+]3-c3nc4ccccc4s3)c(OC)c2)ccc1-n1nc(-c2ccc(C(=O)N(CCS(=O)(=O)[O-])CCS(=O)(=O)[O-])cc2)n[n+]1-c1nc2ccccc2s1.[Na+].[Na+] [WST-5]
synergistic effect on inducing cell death in combination with apigenin (UM-SCC6 cells [10]): no such effect
synergistic effect on inducing cell death in combination with apigenin (HT1080 cells [11]): no such effect

From patent US8680129B2, “Compounds, composition, methods, targets for cancer therapy” (priority 2008, dated 2014)
